From ChEMBL document CHEMBL5226327, “Source and exploration of the peptides used to construct peptide-drug conjugates” (Eur J Med Chem, 2021) come the findings set out here.

Positions of bridges follow the written chain, without caps; N, C: chain ends. Non-standard residues stand in square brackets, D forms with d. Residues, ends and D or L forms follow the SMILES beside them. Pen = CC(C)(S)[C@H](N)C(=O)O

The test system of one assay is HT-1080. In words: Inhibition of cell adhesion in human HT-1080 cells. The assay is classed as functional, cell-based.
Another assay relates to A-375. In words: Inhibition of cell adhesion in human A-375 cells. The class given is functional, cell-based.
Another assay relates to HBL-100. Put plainly: Inhibition of cell adhesion in human HBL-100 cells. The class given is functional, cell-based.
In the next assay the target is Integrin alpha-5/beta-1 (Homo sapiens, UniProt P05556+P08648). Put plainly: Binding affinity to integrin alpha5beta1 (unknown origin) assessed as inhibition of integrin and fibronectin interaction. The assay is classed as protein-complex assay.
Chain of Integrin alpha-5/beta-1 (P05556 21-798 limits assumed): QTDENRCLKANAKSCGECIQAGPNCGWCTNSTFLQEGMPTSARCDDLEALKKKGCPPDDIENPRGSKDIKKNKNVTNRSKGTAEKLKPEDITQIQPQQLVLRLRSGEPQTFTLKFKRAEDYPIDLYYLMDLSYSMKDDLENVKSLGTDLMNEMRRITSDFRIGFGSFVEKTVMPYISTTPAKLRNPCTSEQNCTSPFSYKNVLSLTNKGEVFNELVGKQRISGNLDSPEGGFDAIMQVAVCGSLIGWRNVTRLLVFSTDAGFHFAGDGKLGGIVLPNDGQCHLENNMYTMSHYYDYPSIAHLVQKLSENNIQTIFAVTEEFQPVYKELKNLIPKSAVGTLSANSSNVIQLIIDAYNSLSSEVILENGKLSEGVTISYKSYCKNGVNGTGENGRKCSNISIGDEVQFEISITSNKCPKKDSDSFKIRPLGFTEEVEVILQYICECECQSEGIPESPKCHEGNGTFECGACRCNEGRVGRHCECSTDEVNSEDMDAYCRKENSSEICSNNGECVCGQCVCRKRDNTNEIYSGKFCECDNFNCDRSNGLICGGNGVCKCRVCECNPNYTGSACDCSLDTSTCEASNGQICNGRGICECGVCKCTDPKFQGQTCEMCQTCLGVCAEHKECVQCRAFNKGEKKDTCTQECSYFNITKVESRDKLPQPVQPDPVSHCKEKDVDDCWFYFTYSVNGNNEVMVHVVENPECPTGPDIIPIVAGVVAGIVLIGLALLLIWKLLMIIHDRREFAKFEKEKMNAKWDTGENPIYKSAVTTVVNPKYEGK
Chain of Integrin alpha-5/beta-1 (P08648 42-894 limits assumed): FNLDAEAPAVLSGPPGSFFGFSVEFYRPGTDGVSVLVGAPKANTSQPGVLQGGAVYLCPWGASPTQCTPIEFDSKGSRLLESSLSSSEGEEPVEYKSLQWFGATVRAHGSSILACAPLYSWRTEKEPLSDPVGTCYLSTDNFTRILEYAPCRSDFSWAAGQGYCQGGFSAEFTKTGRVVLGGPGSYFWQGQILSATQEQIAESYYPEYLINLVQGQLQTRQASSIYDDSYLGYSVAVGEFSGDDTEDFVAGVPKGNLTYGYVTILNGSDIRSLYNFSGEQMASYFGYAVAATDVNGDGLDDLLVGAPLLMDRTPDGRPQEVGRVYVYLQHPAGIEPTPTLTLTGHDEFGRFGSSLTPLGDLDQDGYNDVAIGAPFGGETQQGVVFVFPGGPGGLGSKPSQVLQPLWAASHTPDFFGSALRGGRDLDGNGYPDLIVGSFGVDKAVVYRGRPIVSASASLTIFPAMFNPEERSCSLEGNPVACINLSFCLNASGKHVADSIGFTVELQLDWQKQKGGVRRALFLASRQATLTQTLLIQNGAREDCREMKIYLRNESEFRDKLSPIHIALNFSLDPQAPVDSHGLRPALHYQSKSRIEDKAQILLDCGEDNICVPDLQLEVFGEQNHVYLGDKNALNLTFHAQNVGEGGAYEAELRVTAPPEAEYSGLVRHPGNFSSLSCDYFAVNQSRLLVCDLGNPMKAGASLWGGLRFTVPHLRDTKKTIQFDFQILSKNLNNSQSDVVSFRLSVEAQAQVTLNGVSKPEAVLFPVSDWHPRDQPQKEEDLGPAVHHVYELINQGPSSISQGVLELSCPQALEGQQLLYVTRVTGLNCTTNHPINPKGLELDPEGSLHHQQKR
Chain of Integrin alpha-5/beta-1 (P08648 895-1049 limits assumed): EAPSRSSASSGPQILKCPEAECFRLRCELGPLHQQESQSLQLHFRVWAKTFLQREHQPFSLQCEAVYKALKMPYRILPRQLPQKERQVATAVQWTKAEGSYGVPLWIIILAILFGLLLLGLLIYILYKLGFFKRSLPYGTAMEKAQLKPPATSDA

As usually defined, the IC50 is the concentration that inhibits the measured activity by half. Take `CC(=O)N[C@H]1CSSC(C)(C)[C@@H](C(N)=O)NC(=O)[C@H](Cc2ccccc2)NC(=O)[C@H](CC(=O)O)NC(=O)CNC(=O)[C@H](CCCNC(=N)N)NC1=O` (Ac-CRGDF[Pen]-NH2; disulfide 1-6): the IC50 with HT-1080, in the assay with A-375 and in the assay with HBL-100 was 100 nM throughout.
As to `CC[C@H](C)[C@H](NC(=O)[C@@H](N)C(C)C)C(=O)N[C@@H](CC(C)C)C(=O)N[C@H](C(=O)N[C@@H](CC(C)C)C(=O)N[C@@H](Cc1ccccc1)C(=O)O)C(C)C` (H-VILVLF-OH), on Integrin alpha-5/beta-1, the 50% inhibitory concentration (IC50) was found to be 1560 nM.
